According to patent US20200131196A1 (Mount Tam Therapeutics, Inc., priority 2017, published 2020):
Where two headings read alike, the source gives them in different places.

Key:
Assay type in all cases: cell-based, human
[1] = tested on: Hs 729; assay: OncoPanel cell proliferation assay, Hs 729
Method: (§1) Cells were grown in RPMI 1640, 10% FBS, 2 mM L-alanyl-L-glutamine, 1 mM Na pyruvate, or a special medium. Cells were seeded into 384-well plates and incubated in a humidified atmosphere of 5% CO2 at 37° C. Compounds were added the day following cell seeding. At the same time, a time zero untreated cell plate was generated. After a 3-day incubation period, cells were fixed and stained to allow fluorescence imaging of nuclei. Compounds (1 mM stock solutions) were serially diluted in half-log steps from the highest test concentration ([…]), and assayed over 10 concentrations with a maximum assay concentration of 0.1% DMSO. Automated fluorescence microscopy was carried out using a Molecular Devices ImageXpress Micro XL high-content imager, and images were collected with a 4× objective. 16-bit TIFF images were acquired and analyzed with MetaXpress 5.1.0.41 software.
(§2) Cell proliferation was measured by the fluorescence intensity of an incorporated nuclear dye. The output is referred to as the relative cell count, where the measured nuclear intensity is transformed to percent of control (POC) using the following formula: […]
(§3) Cellular response parameters were calculated using nonlinear regression to a sigmoidal single-site dose response model:
(§4) EC50 is the test compound concentration at the curve inflection point or half the effective response (parameter C of the fitted curve solution). GI50 is the concentration needed to reduce the observed growth by half (midway between the curve maximum and the time zero value). “Cell Count Activity Area” is an estimate of the integrated area above the curve (Barretina, et al. The Cancer Cell Line Encyclopedia enables predictive modelling of anticancer drug sensitivity. Nature 483: 603-607). […] In rare instances, values <0 or >10 may be observed. […] Curve-fitting, calculations, and report generation was performed using a custom data reduction engine and MathIQ based software (AIM).

[2] = tested on: Hs 852.T; assay: OncoPanel cell proliferation assay, Hs 852.T
Method: as §1, §2, §3, §4

[3] = tested on: A431; assay: OncoPanel cell proliferation assay, A431
Method: as §1, §2, §3, §4

[4] = tested on: CRO-AP2; assay: OncoPanel cell proliferation assay, CRO-AP2
Method: as §1, §2, §3, §4

[5] = tested on: SNU-C2B; assay: OncoPanel cell proliferation assay, SNU-C2B
Method: as §1, §2, §3, §4

[6] = tested on: SNU-5; assay: OncoPanel cell proliferation assay, SNU-5
Method: as §1, with “Cells” for “Cells were grown in RPMI 1640, 10% FBS, 2 mM L-alanyl-L-glutamine, 1 mM Na pyruvate, or a special medium. Cells”
as §2, §3
GI50 is the concentration needed to reduce the observed growth by half (midway between the curve maximum and the time zero value). […] In rare instances, values <0 or >10 may be observed. […] Curve-fitting, calculations, and report generation was performed using a custom data reduction engine and MathIQ based software (AIM).

[7] = Homo sapiens, read-out: Cell Count EC50
[8] = Homo sapiens, read-out: Cell Count GI50
[9] = Homo sapiens, read-out: Cell Count IC50

CO[C@H]1C[C@@H]2CC[C@@H](C)[C@@](O)(O2)C(=O)C(=O)N2CCCC[C@H]2C(=O)O[C@H]([C@H](C)C[C@H]2C[C@H]3C[C@@H]2C[C@@H]3O)CC(=O)[C@H](C)/C=C(\C)[C@@H](O)[C@@H](OC)C(=O)[C@H](C)C[C@H](C)/C=C/C=C/C=C/1C [Formula II, C37-[(1R,2S,4R,5S)-5-hyhroxybicyclo[2.2.1]heptane] rapamycin]
Cell Count Activity Area [1]: 0.91
Relative cell count (%) Mean ([1]; 1.00E+00 microM): 73.3%
Relative cell count (%) Mean ([1]; 1.00E-01 microM): 81.0%
Relative cell count (%) Mean ([1]; 1.00E-02 microM): 91.1%
Relative cell count (%) Mean ([1]; 1.00E-03 microM): 97.1%
Relative cell count (%) Mean ([1]; 1.01E-04 microM): 105.0%
Relative cell count (%) Mean ([1]; 3.16E-01 microM): 74.8%
Relative cell count (%) Mean ([1]; 3.17E-02 microM): 79.3%
Relative cell count (%) Mean ([1]; 3.17E-03 microM): 98.0%
Relative cell count (%) Mean ([1]; 3.18E-04 microM): 93.3%
Relative cell count (%) Mean ([1]; 3.18E-05 microM): 93.2%
EC50 [1, 7]: > 1000 nM
GI50 [1, 8]: 101 nM
IC50 [1, 9]: > 1000 nM
Cell Count Activity Area [2]: 0.95
Relative cell count (%) Mean ([2]; 1.00E+00 microM): 72.0%
Relative cell count (%) Mean ([2]; 1.00E-01 microM): 80.1%
Relative cell count (%) Mean ([2]; 1.00E-02 microM): 91.2%
Relative cell count (%) Mean ([2]; 1.00E-03 microM): 92.9%
Relative cell count (%) Mean ([2]; 1.01E-04 microM): 98.7%
Relative cell count (%) Mean ([2]; 3.16E-01 microM): 73.2%
Relative cell count (%) Mean ([2]; 3.17E-02 microM): 82.3%
Relative cell count (%) Mean ([2]; 3.17E-03 microM): 90.6%
Relative cell count (%) Mean ([2]; 3.18E-04 microM): 92.8%
Relative cell count (%) Mean ([2]; 3.18E-05 microM): 95.0%
EC50 [2, 7]: > 1000 nM
GI50 [2, 8]: > 1000 nM
IC50 [2, 9]: > 1000 nM
Cell Count Activity Area [3]: 1.43
Relative cell count (%) Mean ([3]; 1.00E+00 microM): 71.4%
Relative cell count (%) Mean ([3]; 1.00E-01 microM): 80.3%
Relative cell count (%) Mean ([3]; 1.00E-02 microM): 85.0%
Relative cell count (%) Mean ([3]; 1.00E-03 microM): 94.6%
Relative cell count (%) Mean ([3]; 1.01E-04 microM): 103.1%
Relative cell count (%) Mean ([3]; 3.16E-01 microM): 75.3%
Relative cell count (%) Mean ([3]; 3.17E-02 microM): 81.8%
Relative cell count (%) Mean ([3]; 3.17E-03 microM): 96.4%
Relative cell count (%) Mean ([3]; 3.18E-04 microM): 102.0%
Relative cell count (%) Mean ([3]; 3.18E-05 microM): 100.9%
EC50 ([3]; Homo sapiens, A-431, Skin, Head/Neck, summary Table 5, read-out: EC50): 12 nM
EC50 ([3]; Homo sapiens, A-431, read-out: Cell Count EC50): 12.1 nM
GI50 ([3]; Homo sapiens, A-431, read-out: Cell Count GI50): > 1000 nM
IC50 ([3]; Homo sapiens, A-431, read-out: Cell Count IC50): > 1000 nM
Cell Count Activity Area [4]: 4.89
Relative cell count (%) Mean ([4]; 1.00E+00 microM): 24.8%
Relative cell count (%) Mean ([4]; 1.00E-01 microM): 27.5%
Relative cell count (%) Mean ([4]; 1.00E-02 microM): 34.9%
Relative cell count (%) Mean ([4]; 1.00E-03 microM): 65.3%
Relative cell count (%) Mean ([4]; 1.01E-04 microM): 100.6%
Relative cell count (%) Mean ([4]; 3.16E-01 microM): 24.7%
Relative cell count (%) Mean ([4]; 3.17E-02 microM): 27.0%
Relative cell count (%) Mean ([4]; 3.17E-03 microM): 47.3%
Relative cell count (%) Mean ([4]; 3.18E-04 microM): 81.8%
Relative cell count (%) Mean ([4]; 3.18E-05 microM): 98.0%
EC50 [4, 7]: 1.07 nM
GI50 [4, 8]: 1.65 nM
IC50 [4, 9]: 2.21 nM
Cell Count Activity Area [5]: 2.73
Relative cell count (%) Mean ([5]; 1.00E+00 microM): 74.9%
Relative cell count (%) Mean ([5]; 1.00E-01 microM): 76.2%
Relative cell count (%) Mean ([5]; 1.00E-02 microM): 79.1%
Relative cell count (%) Mean ([5]; 1.00E-03 microM): 74.1%
Relative cell count (%) Mean ([5]; 1.01E-04 microM): 97.1%
Relative cell count (%) Mean ([5]; 3.16E-01 microM): 66.6%
Relative cell count (%) Mean ([5]; 3.17E-02 microM): 69.5%
Relative cell count (%) Mean ([5]; 3.17E-03 microM): 76.3%
Relative cell count (%) Mean ([5]; 3.18E-04 microM): 88.6%
Relative cell count (%) Mean ([5]; 3.18E-05 microM): 106.6%
EC50 [5, 7]: 0.179 nM
GI50 [5, 8]: 3.16 nM
IC50 [5, 9]: > 1000 nM
Cell Count Activity Area [6]: 1.85
Relative cell count (%) Mean ([6]; 1.00E+00 microM): 67.1%
Relative cell count (%) Mean ([6]; 1.00E-01 microM): 71.9%
Relative cell count (%) Mean ([6]; 1.00E-02 microM): 82.9%
Relative cell count (%) Mean ([6]; 1.00E-03 microM): 95.6%
Relative cell count (%) Mean ([6]; 1.01E-04 microM): 101.2%
Relative cell count (%) Mean ([6]; 3.16E-01 microM): 70.4%
Relative cell count (%) Mean ([6]; 3.17E-02 microM): 76.3%
Relative cell count (%) Mean ([6]; 3.17E-03 microM): 84.9%
Relative cell count (%) Mean ([6]; 3.18E-04 microM): 95.6%
Relative cell count (%) Mean ([6]; 3.18E-05 microM): 101.0%
EC50 [6, 7]: 5.57 nM
GI50 [6, 8]: 168 nM
IC50 [6, 9]: > 1000 nM
